Data on 84 compounds can be found in ChEMBL document CHEMBL3639166, “Heteroaryloxyheterocyclyl compounds as PDE10 inhibitors” (2013).

The assay addresses T1, cAMP and cAMP-inhibited cGMP 3',5'-cyclic phosphodiesterase 10A (Rattus norvegicus, UniProt Q9QYJ6).
T1 sequence (Q9QYJ6 whole entry): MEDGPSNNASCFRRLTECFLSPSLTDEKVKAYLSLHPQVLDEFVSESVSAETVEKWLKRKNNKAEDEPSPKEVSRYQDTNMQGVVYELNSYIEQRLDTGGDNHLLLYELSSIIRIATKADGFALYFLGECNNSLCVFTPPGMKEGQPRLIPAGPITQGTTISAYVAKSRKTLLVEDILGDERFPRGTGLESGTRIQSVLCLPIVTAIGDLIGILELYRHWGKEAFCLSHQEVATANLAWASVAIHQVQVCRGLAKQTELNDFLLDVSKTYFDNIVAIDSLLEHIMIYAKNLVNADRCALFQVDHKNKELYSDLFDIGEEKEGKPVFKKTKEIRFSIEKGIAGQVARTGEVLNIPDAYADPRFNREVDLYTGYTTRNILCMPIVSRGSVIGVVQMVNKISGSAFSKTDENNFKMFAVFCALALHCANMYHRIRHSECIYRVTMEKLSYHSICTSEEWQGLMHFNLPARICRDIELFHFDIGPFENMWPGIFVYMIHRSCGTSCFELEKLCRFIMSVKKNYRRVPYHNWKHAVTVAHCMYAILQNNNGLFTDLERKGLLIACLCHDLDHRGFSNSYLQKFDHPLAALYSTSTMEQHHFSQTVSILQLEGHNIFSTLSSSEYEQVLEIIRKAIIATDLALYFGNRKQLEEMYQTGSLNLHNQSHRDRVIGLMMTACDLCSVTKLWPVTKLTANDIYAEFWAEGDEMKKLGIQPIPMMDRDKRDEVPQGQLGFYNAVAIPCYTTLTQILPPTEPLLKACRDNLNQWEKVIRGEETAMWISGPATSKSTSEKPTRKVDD
Nature of the assay: Enzyme Inhibition Assay: Enzyme activity: An IMAP TR-FRET assay was used to analyze the enzyme activity (Molecular Devices Corp., Sunnyvale, Calif).

In turn, `CC(=O)N1CCC(c2nccnc2OC2CN(c3ccc4ccccc4n3)C2)CC1` had an IC50 of 8.39 nM.

Take `O=C1CCC(c2nccnc2OC2CN(C(=O)c3nc4ccccc4[nH]3)C2)CC1`: the IC50 is 114 nM.

The compound `O=C(c1ccc2ccccc2n1)N1CCC(Oc2nccnc2N2CCOCC2)CC1` gave an IC50 of 1080 nM.

`CC(C)(C)OC(=O)N1CC(Oc2ncccc2[C@H]2CC[C@H](O)CC2)C1`: the IC50 came to 15.8 nM.

In turn, `O=C(c1nc2ccccc2[nH]1)N1CC(Oc2ncccc2[C@H]2CC[C@@H](O)CC2)C1` gave an IC50 of 21.1 nM.

The compound `CC(=O)N1CCCC(c2cccnc2OC2CN(C(=O)c3cc(C)c[nH]3)C2)C1` (centres undefined) returned an IC50 of 7940 nM.

For the compound `CC(=O)N1CC=C(c2nccnc2OC2CN(C(=O)c3cc(C)c[nH]3)C2)CC1`, the IC50 was found to be 250 nM.

The compound `CC(=O)N1CCCC(c2cccnc2OC2CN(C(=O)c3cc4ccccc4[nH]3)C2)C1` (centres undefined) displayed an IC50 of 886 nM. Compared with the last compound, the IC50 is about 3.5-fold higher.

On to `CC(O)C1CCN(c2ccnnc2OC2CN(c3ccc4ccccc4n3)C2)CC1` (centres undefined), for which the IC50 is 76.7 nM.

The compound `OCC1CCN(c2nccc(OC3CN(c4ccc5ccccc5n4)C3)n2)CC1` registered an IC50 of 14.2 nM.

`O=C(c1nc2ccccc2[nH]1)N1CC[C@@H](Oc2nccnc2C2CCOCC2)C1` had an IC50 of 2780 nM.

`O=C(c1ccncn1)N1CC(Oc2ncccc2C2=CCOCC2)C1`: the IC50 worked out at 990 nM.

Compound `O=C(c1ncc[nH]1)N1CCC(Oc2ncccc2C2CCOCC2)CC1` gave an IC50 of 3670 nM.

Turning to `O=C(c1ccc[nH]1)N1CCC(Oc2ncccc2C2CCOCC2)CC1`, the IC50 came out at 4260 nM.

For `O=C(c1ccccn1)N1CCC(Oc2ncccc2C2CCOCC2)CC1`, half-maximal inhibition (IC50) required 1260 nM.

Take `Cc1cccc(C(=O)N2CCC(Oc3ncccc3C3CCOCC3)CC2)n1`: the IC50 is 1180 nM. The IC50 values of the last two compounds are within 1.5-fold of each other.

In the case of `Cc1ccc(C(=O)N2CCC(Oc3ncccc3C3CCOCC3)CC2)nc1`, the IC50 worked out at 1650 nM.

Consider `Cc1ccnc(C(=O)N2CCC(Oc3ncccc3C3CCOCC3)CC2)c1`, for which the IC50 was 118 nM.

In turn, `Cc1cccnc1C(=O)N1CCC(Oc2ncccc2C2CCOCC2)CC1` yielded an IC50 of 1000 nM.

As to `O=C(c1nc2ccccc2s1)N1CCC(Oc2ncccc2C2CCOCC2)CC1`, 324 nM corresponded to half-maximal inhibition (IC50). This IC50 lies about 3.1-fold lower than the previous one.

Compound `O=C(c1cc2ccccc2cn1)N1CCC(Oc2ncccc2C2CCOCC2)CC1` gave an IC50 of 126 nM.

Consider `O=C(c1cc(Cl)ccn1)N1CCC(Oc2ncccc2C2CCOCC2)CC1`, for which the IC50 turned out to be 8890 nM.

The compound `O=C(c1nc2ccccc2[nH]1)N1CC[C@H](Oc2ncccc2C2=CCOCC2)C1` displayed an IC50 of 715 nM. Against the preceding compound, the IC50 is about 12-fold lower.

Compound `O=C(c1nc2ccccc2[nH]1)N1CC[C@@H](Oc2ncccc2C2=CCOCC2)C1` had an IC50 of 767 nM.

For the compound `O=C(c1nc2ccccc2[nH]1)N1CC(Oc2nccnc2C2CCOCC2)C1`, the IC50 is 884 nM. The IC50 values of the last two compounds are within 1.5-fold of each other.

With `O=C(c1nc2ccccc2[nH]1)N1CCC(Oc2ncccc2C2CCOCC2)CC1`, half-maximal inhibition (IC50) required 116 nM.

Take `CC(=O)N1CCC(c2cccnc2OC2CN(C(=O)c3nc4ccccc4[nH]3)C2)CC1`: the IC50 came to 102 nM.

With `CC(=O)N1CC=C(c2nccnc2OC2CN(C(=O)c3ccc(C)cn3)C2)CC1`, the IC50 was 1030 nM.

Compound `CC(=O)N1CCCC(c2cccnc2OC2CN(C(=O)c3ccc(C)nc3)C2)C1` (centres undefined) returned an IC50 of 8340 nM.

The compound `CC(=O)N1CCCC(c2cccnc2OC2CN(C(=O)CC(C)(C)C)C2)C1` (centres undefined) registered a half-inhibitory concentration (IC50) of 41800 nM.

`CC(=O)N1CCC(c2nccnc2OC2CN(C(=O)c3ccc[nH]3)C2)CC1`: it took 139 nM to reach half-maximal inhibition (IC50).

With `O=C(c1nc2ccccc2[nH]1)N1CC(Oc2cnccn2)C1`, the midpoint of inhibition, the IC50, lay at 12300 nM.

For the compound `O=C(c1nc2ccccc2[nH]1)N1CC(Oc2nc3ccccc3nc2C2CCOCC2)C1`, the IC50 worked out at 786 nM. Against the preceding compound, the IC50 is about 16-fold lower.

As to `O=C(c1ccc2ccccc2n1)N1CCC(Oc2ncccc2C2CCOCC2)CC1`, half-maximal inhibition (IC50) was put at 809 nM.

For `O=C(c1ccc2ccccc2n1)N1CCC(Oc2nccnc2C2CCOCC2)CC1`, the IC50 is 994 nM.

As to `O=C(c1nccc2ccccc12)N1CCC(Oc2nccnc2C2CCOCC2)CC1`, inhibition was half-maximal at 7320 nM (IC50). Against the preceding compound, the IC50 is about 7.4-fold higher.

`Cc1cc(-c2nccnc2OC2CCN(C(=O)c3ccc4ccccc4n3)CC2)ccn1` yielded an IC50 of 2660 nM.

Regarding `Cc1cc(-c2nccnc2OC2CCN(C(=O)c3nccc4ccccc34)CC2)ccn1`, half-maximal inhibition (IC50) was put at 3590 nM.

As to `Cc1cc(-c2cccnc2OC2CCN(C(=O)c3ccc4ccccc4n3)CC2)ccn1`, the IC50 came out at 1230 nM.

On to `Cc1cc(-c2cccnc2OC2CCN(C(=O)c3nccc4ccccc34)CC2)ccn1`, for which the IC50 was found to be 2130 nM.

`O=C(c1nccc2ccccc12)N1CCC(Oc2ncccc2N2CCOCC2)CC1` showed an IC50 of 11100 nM.

With `O=C(c1nccc2ccccc12)N1CCC(Oc2nccnc2N2CCOCC2)CC1`, half-maximal inhibition (IC50) was put at 5400 nM. This IC50 is about 2.1-fold lower than that of the compound before.

`O=C(c1nc2ccccc2[nH]1)N1CC[C@@H](Oc2ncccc2C2CCOCC2)C1` had an IC50 of 1820 nM.

In the case of `O=C(c1nc2ccccc2[nH]1)N1CC[C@H](Oc2ncccc2C2CCOCC2)C1`, the IC50 stood at 409 nM. This IC50 is about 4.4-fold lower than that of the compound before.

Compound `c1cnc(OC2CN(c3ccc4ccccc4n3)C2)c(C2CCOCC2)c1` registered an IC50 of 1800 nM. Against the preceding compound, the IC50 is about 4.4-fold higher.

Compound `c1ccc2cc(N3CC(Oc4nccnc4C4CCOCC4)C3)ncc2c1` had an IC50 of 4960 nM.

For the compound `c1ccc2c(N3CC(Oc4nccnc4C4CCOCC4)C3)nccc2c1`, inhibition was half-maximal at 4410 nM (IC50).

`c1ccc2nc(N3CC(Oc4nccnc4C4CCOCC4)C3)ccc2c1` yielded an IC50 of 331 nM.

With `c1ccc(N2CCC(Oc3nccnc3C3CCOCC3)CC2)nc1`, 2390 nM corresponded to half-maximal inhibition (IC50).

`Cc1ccnc(N2CCC(Oc3nccnc3C3CCOCC3)CC2)c1` came in with an IC50 of 1330 nM. Compared with the last compound, the IC50 is about 1.8-fold lower.

`Cc1cccc(N2CCC(Oc3nccnc3C3CCOCC3)CC2)n1` showed a half-inhibitory concentration (IC50) of 1440 nM.

Compound `Cc1cccnc1N1CCC(Oc2ncccc2C2CCOCC2)CC1` came in with an IC50 of 568 nM.

Consider `Cc1ccnc(N2CCC(Oc3ncccc3C3CCOCC3)CC2)c1`, for which the IC50 is 236 nM.

For `Cc1ccc(N2CCC(Oc3ncccc3C3CCOCC3)CC2)nc1`, the IC50 was 262 nM.

Take `Cc1cccc(N2CCC(Oc3ncccc3C3CCOCC3)CC2)n1`: half-maximal inhibition (IC50) was put at 1670 nM.

`c1ccc2c(N3CCC(Oc4nccnc4C4CCOCC4)CC3)nccc2c1` gave an IC50 of 2810 nM.

Compound `c1ccc2cc(N3CCC(Oc4nccnc4C4CCOCC4)CC3)ncc2c1` returned an IC50 of 235 nM. Against the preceding compound, the IC50 is about 12-fold lower.

In turn, `c1ccc2nc(N3CCC(Oc4nccnc4C4CCOCC4)CC3)ccc2c1` had an IC50 of 69.3 nM. Against the preceding compound, the IC50 is about 3.4-fold lower.

As to `c1ccc2[nH]c(N3CCC(Oc4nccnc4C4CCOCC4)CC3)nc2c1`, the IC50 is 229 nM.

As to `c1cnc(OC2CCN(c3nccc4ccccc34)CC2)c(C2CCOCC2)c1`, the IC50 turned out to be 1810 nM.

For the compound `c1cnc(OC2CCN(c3cc4ccccc4cn3)CC2)c(C2CCOCC2)c1`, the IC50 is 353 nM.

The compound `c1cnc(OC2CCN(c3nc4ccccc4[nH]3)CC2)c(C2CCOCC2)c1` showed an IC50 of 199 nM. Against the preceding compound, the IC50 is about 1.8-fold lower.

For `c1cnc(O[C@H]2CCN(c3ccc4ccccc4n3)C2)c(C2CCOCC2)c1`, half-maximal inhibition (IC50) was put at 340 nM. This IC50 is about 1.7-fold higher than that of the compound before.

In the case of `c1cnc(O[C@H]2CCN(c3cc4ccccc4cn3)C2)c(C2CCOCC2)c1`, the IC50 stood at 2970 nM.

Compound `c1cnc(O[C@H]2CCN(c3nccc4ccccc34)C2)c(C2CCOCC2)c1` came in with an IC50 of 730 nM.

Take `c1cnc(O[C@H]2CCN(c3nc4ccccc4[nH]3)C2)c(C2CCOCC2)c1`: the IC50 came out at 2470 nM.

Take `c1cnc(O[C@@H]2CCN(c3ccc4ccccc4n3)C2)c(C2CCOCC2)c1`: the IC50 amounted to 384 nM.

`c1cnc(O[C@@H]2CCN(c3cc4ccccc4cn3)C2)c(C2CCOCC2)c1` came in with an IC50 of 1830 nM.

In the case of `c1cnc(O[C@@H]2CCN(c3nccc4ccccc34)C2)c(C2CCOCC2)c1`, the IC50 worked out at 981 nM.

For the compound `c1cnc(O[C@@H]2CCN(c3nc4ccccc4[nH]3)C2)c(C2CCOCC2)c1`, the IC50 was 3590 nM. Against the preceding compound, the IC50 is about 3.7-fold higher.

`c1ccc2nc(N3CC[C@H](Oc4nccnc4C4CCOCC4)C3)ccc2c1` showed an IC50 of 447 nM.

The compound `c1ccc2cc(N3CC[C@H](Oc4nccnc4C4CCOCC4)C3)ncc2c1` returned an IC50 of 1360 nM. This IC50 lies about 3-fold higher than the previous one.

Take `c1ccc2c(N3CC[C@H](Oc4nccnc4C4CCOCC4)C3)nccc2c1`: inhibition was half-maximal at 819 nM (IC50).

Compound `c1ccc2nc(N3CC[C@@H](Oc4nccnc4C4CCOCC4)C3)ccc2c1` returned an IC50 of 109 nM.

In turn, `c1ccc2c(N3CC[C@@H](Oc4nccnc4C4CCOCC4)C3)nccc2c1` had an IC50 of 4430 nM.

On to `c1ccc2[nH]c(N3CC[C@@H](Oc4nccnc4C4CCOCC4)C3)nc2c1`, for which the IC50 stood at 306 nM. This IC50 lies about 14-fold lower than the previous one.

Take `CC(=O)N1CC=C(c2cccnc2OC2CN(c3nc4ccccc4s3)C2)CC1`: half-maximal inhibition (IC50) was put at 346 nM.

The compound `CC(=O)N1CCC(c2nccnc2OC2CN(c3nc4ccccc4[nH]3)C2)CC1` had an IC50 of 690 nM.

As for `CC(=O)N1CC=C(c2nccnc2OC2CN(c3nc4ccccc4s3)C2)CC1`, the IC50 is 63.1 nM.

`O=[N+]([O-])c1ccc(N2CCC(Oc3ncccc3C3CCOCC3)CC2)nc1` displayed an IC50 of 1400 nM.

`Nc1ccc(N2CCC(Oc3ncccc3C3CCOCC3)CC2)nc1` displayed an IC50 of 1700 nM.

`Clc1ccc(N2CCC(Oc3ncccc3C3CCOCC3)CC2)nc1`: half-maximal inhibition (IC50) required 1410 nM.

`Brc1ccc(N2CCC(Oc3ncccc3C3CCOCC3)CC2)nc1` returned an IC50 of 138 nM.

Regarding `OCc1ccc(N2CCC(Oc3ncccc3C3CCOCC3)CC2)nc1`, the IC50 turned out to be 1170 nM.
